Laboratory results as given in ChEMBL document CHEMBL1153832, “Identification and characterization of UK-201844, a novel inhibitor that interferes with human immunodeficiency virus type 1 gp160 processing” (Antimicrob Agents Chemother, 2007).
Calls of active or inactive are those of the source. The rule behind the calls is not given here.

Columns and labels:
[1] = system: Human immunodeficiency virus 1; test: Antiviral activity against HIV1 NL4-3 infected in human MT2 cells assessed as inhibition of viral p24 antigen level at 0.5 uM by Western blot; type: functional; conditions: Human immunodeficiency virus 1, NL4-3, MT2
[2] = system: Human immunodeficiency virus 1; test: Ratio of EC50 for recombinant HIV1 NL4-3 bearing envelope with V372E substitution to EC50 for parental HIV1 NL4-3; type: functional
[3] = system: Human immunodeficiency virus 1; test: Antiviral activity against HIV1 bearing VSV envelope infected in human HeLa CD4 cells coexpressing LTR/beta-Gal gene assessed as reduction in virus-induced beta-galactosidase reporter gene activity after 72 hrs by single-cycle infection assay; type: functional, organism-based; conditions: Human immunodeficiency virus 1, HeLa
[4] = system: Human immunodeficiency virus 1; test: Antiviral activity against HIV1 NL4/3BFL chimeric virus transfected in HEK293 cells assessed as inhibition of viral envelope gp160/gp120 processing at 15 uM by Western blot; type: functional; conditions: Human immunodeficiency virus 1, NL4/3BFL
[5] = biological target: Furin (Homo sapiens) (UniProt P09958); test: Inhibition of human recombinant furin up to 100 uM
Sequence of Furin (Homo sapiens) (P09958 whole entry): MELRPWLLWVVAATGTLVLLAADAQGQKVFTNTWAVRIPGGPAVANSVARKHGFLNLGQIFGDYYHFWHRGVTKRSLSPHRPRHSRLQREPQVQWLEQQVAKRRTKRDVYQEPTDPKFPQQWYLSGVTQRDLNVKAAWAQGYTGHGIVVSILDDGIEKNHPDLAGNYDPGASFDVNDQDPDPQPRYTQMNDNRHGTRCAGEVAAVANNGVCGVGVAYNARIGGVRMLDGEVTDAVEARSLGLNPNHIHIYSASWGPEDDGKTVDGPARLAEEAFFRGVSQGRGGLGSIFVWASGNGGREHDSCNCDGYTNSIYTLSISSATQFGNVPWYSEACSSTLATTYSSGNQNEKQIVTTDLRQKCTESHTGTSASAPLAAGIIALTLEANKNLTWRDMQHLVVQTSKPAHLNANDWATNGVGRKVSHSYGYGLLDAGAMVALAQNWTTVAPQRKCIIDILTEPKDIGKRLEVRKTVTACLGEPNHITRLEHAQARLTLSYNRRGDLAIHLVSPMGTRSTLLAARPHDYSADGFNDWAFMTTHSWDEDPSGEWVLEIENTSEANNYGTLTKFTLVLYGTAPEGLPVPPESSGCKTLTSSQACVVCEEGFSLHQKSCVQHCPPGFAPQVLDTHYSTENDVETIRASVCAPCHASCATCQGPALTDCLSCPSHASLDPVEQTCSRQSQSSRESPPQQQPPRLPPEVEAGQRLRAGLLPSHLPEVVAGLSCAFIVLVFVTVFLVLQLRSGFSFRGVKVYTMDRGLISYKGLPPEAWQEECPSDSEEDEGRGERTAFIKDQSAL

[6] = system: Human immunodeficiency virus 1; test: Antiviral activity against recombinant HIV1 NL4-3 bearing envelope with G354E, V372E substitutions infected in human MT2 cells by virus production assay; type: functional, organism-based
[7] = Therapeutic index, ratio of CC50 for human MT2 cells to EC50 for HIV1 Ba-L; type: cell-based; conditions: read-out: TI
[8] = system: Human immunodeficiency virus 1; test: Antiviral activity against HIV1 bearing HIV1 NL4-3 envelope infected in human MT2 cells assessed as inhibition of HIV-envelope packed virions at 15 uM after 72 hrs by virus production assay relative to control; type: functional; conditions: Human immunodeficiency virus 1, MT2, 72 h
[9] = Therapeutic index, ratio of CC50 for human PM1 cells to EC50 for HIV1 NL4-3; type: cell-based; conditions: read-out: TI
[10] = system: Human immunodeficiency virus 1; test: Antiviral activity against HIV1 NL4-3 transfected in HEK293 cells assessed as inhibition of viral envelope gp160 processing at 0.5 uM by Western blot; type: functional; conditions: Human immunodeficiency virus 1, NL4-3, HEK293
[11] = system: Human immunodeficiency virus 1; test: Ratio of EC50 for recombinant HIV1 NL4-3 bearing envelope with S162N, N302Y substitutions to EC50 for parental HIV1 NL4-3; type: functional
[12] = system: Human immunodeficiency virus 1; test: Antiviral activity against HIV1 clade-B clinical isolate up to its cytotoxic concentration; type: functional, organism-based
[13] = system: Human immunodeficiency virus 1; test: Ratio of EC50 for recombinant HIV1 NL4-3 bearing envelope with G354E substitution to EC50 for parental HIV1 NL4-3; type: functional
[14] = system: Human immunodeficiency virus 1; test: Antiviral activity against HIV1 NL4-3 infected in human CEM-SS cells; type: functional, organism-based
[15] = system: Human immunodeficiency virus 1; test: Inhibition of HIV1 NL4-3 proteins incorporation into virions transfected in HEK293 cells assessed as unprocessed gp160 Env protein at 15 uM by Western blot; type: functional, organism-based
[16] = system: Human immunodeficiency virus 1; test: Antiviral activity against recombinant HIV1 NL4-3 bearing envelope with V372E, D474N substitutions infected in human MT2 cells by virus production assay; type: functional, organism-based
[17] = system: Human immunodeficiency virus 1; test: Antiviral activity against HIV1 NL4-3 infected in human MT2 cells assessed as inhibition of viral p24 antigen level at 15 uM by Western blot; type: functional; conditions: Human immunodeficiency virus 1, NL4-3, MT2
[18] = system: Human immunodeficiency virus 1; test: Antiviral activity against recombinant HIV1 NL4-3 bearing envelope with V372E substitution infected in human MT2 cells by virus production assay; type: functional, organism-based
[19] = system: Human immunodeficiency virus 1; test: Antiviral activity against recombinant HIV1 NL4/3BCt chimeric virus infected in human MT2 cells assessed as inhibition of virus-induced CPE; type: functional, organism-based; conditions: Human immunodeficiency virus 1, NL4/3BCt
[20] = system: Human immunodeficiency virus 1; test: Antiviral activity against HIV1 NL4-3 transfected in HEK293 cells assessed as inhibition of infectious virus production at 15 uM; type: functional; set-up: scale not given: the % may be the effect or the level left
[21] = system: Human immunodeficiency virus 1; test: Antiviral activity against recombinant HIV1 NL4-3 bearing envelope with G354E, V372E, D474N substitutions infected in human MT2 cells by virus production assay; type: functional, organism-based
[22] = system: Human immunodeficiency virus 1; test: Ratio of EC50 for recombinant HIV1 NL4-3/3B5'Env chimeric virus to EC50 for parental HIV1 NL4-3 virus; type: functional
[23] = system: Human immunodeficiency virus 1; test: Antiviral activity against HIV1 NL4-3 infected in human MT2 cells assessed as inhibition of viral p24 antigen level at 7.5 uM by Western blot; type: functional; conditions: Human immunodeficiency virus 1, NL4-3, MT2
[24] = system: Human immunodeficiency virus 1; test: Inhibition of HIV1 NL4-3 proteins incorporation into virions transfected in HEK293 cells assessed as aberrant Env protein at 15 uM by Western blot; type: functional, organism-based
[25] = system: Human immunodeficiency virus 1; test: Ratio of EC50 for recombinant HIV1 NL4-3/3BNt chimeric virus to EC50 for parental HIV1 NL4-3 virus; type: functional
[26] = system: Human immunodeficiency virus 1; test: Ratio of EC50 for recombinant HIV1 NL4-3 bearing envelope with G354E, V372E substitutions to EC50 for parental HIV1 NL4-3; type: functional
[27] = system: Human immunodeficiency virus 1; test: Antiviral activity against HIV1 NL4-3 transfected in HEK293 cells assessed as inhibition of viral envelope gp160 processing at 15 uM by Western blot; type: functional; conditions: Human immunodeficiency virus 1, NL4-3, HEK293
[28] = system: Human immunodeficiency virus 1; test: Antiviral activity against recombinant HIV1 NL4-3 bearing envelope with G354E substitution infected in human MT2 cells by virus production assay; type: functional, organism-based
[29] = system: Human immunodeficiency virus 1; test: Ratio of EC50 for recombinant HIV1 NL4-3 bearing envelope with G354E, V372E, D474N substitutions to EC50 for parental HIV1 NL4-3; type: functional
[30] = system: Human immunodeficiency virus 1; test: Antiviral activity against HIV1 NL4-3 infected in human PM1 cells assessed as inhibition of viral p24 antigen production after 5 days; type: functional, organism-based; conditions: Human immunodeficiency virus 1, NL4-3, PM1, 120 h

In the case of NC(=O)C(c1ccccc1)(c1ccccc1)[C@H]1CCCN(CCc2ccc3c(c2)CCO3)C1, the inhibition at 0.5 µM [1] is reported as 12%, the “fold change (FC)” value [2] is reported as 0.9 and the EC50 [3] is reported as greater than 32000 nM. For the same compound, the inhibition at 15 µM [4] was 2%, the Activity [5] was “inactive” and the EC50 [6] was 2200 nM. The selectivity ratio [7] was 2, the inhibition in vivo at 15 µM [8] was 99.5% and the selectivity ratio [9] was 17. The inhibition at 0.5 µM [10] was 12%, the “fold change (FC)” value [11] was 8.3 and the Activity [12] was “inactive”. The “fold change (FC)” value [13] was 0.9, the EC50 [14] was “Active” and the Activity [15] was “Active”. For the same compound, the EC50 [16] was greater than 32000 nM, the inhibition at 15 µM [17] was 100% and the EC50 [18] was 900 nM. It also gave an EC50 [19] of 5300 nM, an Activity [20] of 100% and an EC50 [21] greater than 32000 nM. The “fold change (FC)” value [22] was greater than 25, the inhibition at 7.5 µM [23] was 99% and the Activity [24] was “Active”. For the same compound, the “fold change (FC)” value [25] was 1, the “fold change (FC)” value [26] was 2.1 and the inhibition at 15 µM [27] was 100%. The EC50 [28] was 900 nM, the “fold change (FC)” value [29] was greater than 31 and the EC50 [30] was 2700 nM.
